ChEMBL document CHEMBL1697692, “Developing structure-activity relationships for the prediction of hepatotoxicity” (Chem Res Toxicol, 2010)

What follows are molecules tested on Hepatotoxicity (assay: Literature-mined public compounds from Greene et al multi-species hepatotoxicity modelling dataset).

**Q.** With `CC(CCc1ccccc1)NCC(O)c1ccc(O)c(C(N)=O)c1` (stereo not given) [LABETALOL] as the molecule, how does the Hepatotoxicity read?
**A.** HH: Evidence of human hepatotoxicity

**Q.** For `Nc1ccn([C@@H]2CS[C@H](CO)O2)c(=O)n1` [LAMIVUDINE], which Hepatotoxicity is on record?
**A.** WE: Weak evidence (<10 case reports) of human hepatotoxicity

**Q.** How did the Hepatotoxicity turn out when `Cc1oncc1C(=O)Nc1ccc(C(F)(F)F)cc1` [LEFLUNOMIDE] was run?
**A.** HH: Evidence of human hepatotoxicity

**Q.** Which Hepatotoxicity does the source give for `Nc1nc(=O)c2c([nH]1)NCC(CNc1ccc(C(=O)N[C@@H](CCC(=O)[O-])C(=O)[O-])cc1)N2C=O.[Ca+2]` (stereo not given in full) [LEUCOVORIN CALCIUM] here?
**A.** NE: No evidence of hepatotoxicity in any species

**Q.** How did the Hepatotoxicity turn out when `N[C@@H](Cc1ccc(O)c(O)c1)C(=O)O` [LEVODOPA] was run?
**A.** NE: No evidence of hepatotoxicity in any species

**Q.** With `C[C@H]1COc2c(N3CCN(C)CC3)c(F)cc3c(=O)c(C(=O)O)cn1c23.C[C@H]1COc2c(N3CCN(C)CC3)c(F)cc3c(=O)c(C(=O)O)cn1c23.O` [LEVOFLOXACIN] as the molecule, how does the Hepatotoxicity read?
**A.** WE: Weak evidence (<10 case reports) of human hepatotoxicity

**Q.** Which Hepatotoxicity does the source give for `CCN(CC)CC(=O)Nc1c(C)cccc1C` [LIDOCAINE] here?
**A.** NE: No evidence of hepatotoxicity in any species

**Q.** For `N[C@@H](Cc1cc(I)c(Oc2ccc(O)c(I)c2)c(I)c1)C(=O)O` [LIOTHYRONINE], which Hepatotoxicity is on record?
**A.** NE: No evidence of hepatotoxicity in any species

**Q.** With `NCCCC[C@H](N[C@@H](CCc1ccccc1)C(=O)O)C(=O)N1CCC[C@H]1C(=O)O` [LISINOPRIL ANHYDROUS] as the molecule, how does the Hepatotoxicity read?
**A.** HH: Evidence of human hepatotoxicity

**Q.** With `C[C@H](CCC(=O)O)[C@H]1CC[C@H]2[C@@H]3CC[C@@H]4C[C@H](O)CC[C@]4(C)[C@H]3CC[C@]12C` [LITHOCHOLIC ACID] as the molecule, how does the Hepatotoxicity read?
**A.** AH: Evidence for animal hepatotoxicity but not tested in humans

**Q.** How did the Hepatotoxicity turn out when `CN(C)C(=O)C(CCN1CCC(O)(c2ccc(Cl)cc2)CC1)(c1ccccc1)c1ccccc1.Cl` [LOPERAMIDE HYDROCHLORIDE] was run?
**A.** NE: No evidence of hepatotoxicity in any species

**Q.** How did the Hepatotoxicity turn out when `N[C@@H](C(=O)N[C@@H]1C(=O)N2C(C(=O)O)=C(Cl)CC[C@H]12)c1ccccc1` [LORACARBEF ANHYDROUS] was run?
**A.** NE: No evidence of hepatotoxicity in any species

**Q.** How did the Hepatotoxicity turn out when `CCCCc1nc(Cl)c(CO)n1Cc1ccc(-c2ccccc2-c2nn[nH]n2)cc1` [LOSARTAN] was run?
**A.** HH: Evidence of human hepatotoxicity

**Q.** With `O=C(O)/C=C\C(=O)O` [MALEIC ACID] as the molecule, how does the Hepatotoxicity read?
**A.** AH: Evidence for animal hepatotoxicity but not tested in humans

**Q.** With `CNCCCC12CCC(c3ccccc31)c1ccccc12` [MAPROTILINE] as the molecule, how does the Hepatotoxicity read?
**A.** WE: Weak evidence (<10 case reports) of human hepatotoxicity

**Q.** Which Hepatotoxicity does the source give for `COC(=O)Nc1nc2ccc(C(=O)c3ccccc3)cc2[nH]1` [MEBENDAZOLE] here?
**A.** HH: Evidence of human hepatotoxicity

**Q.** With `Cc1ccc(Cl)c(Nc2ccccc2C(=O)[O-])c1Cl.O.[Na+]` [MECLOFENAMATE SODIUM] as the molecule, how does the Hepatotoxicity read?
**A.** HH: Evidence of human hepatotoxicity

**Q.** How did the Hepatotoxicity turn out when `CC(=O)O[C@]1(C(C)=O)CC[C@H]2[C@@H]3C[C@H](C)C4=CC(=O)CC[C@]4(C)[C@H]3CC[C@@]21C` [MEDROXYPROGESTERONE ACETATE] was run?
**A.** WE: Weak evidence (<10 case reports) of human hepatotoxicity

**Q.** Which Hepatotoxicity does the source give for `Cc1cccc(Nc2ccccc2C(=O)O)c1C` [MEFENAMIC ACID] here?
**A.** HH: Evidence of human hepatotoxicity

**Q.** For `COc1ccc2[nH]cc(CCNC(C)=O)c2c1` [MELATONIN], which Hepatotoxicity is on record?
**A.** NE: No evidence of hepatotoxicity in any species

**Q.** With `CC12CC3CC(C)(C1)CC(N)(C3)C2` [MEMANTINE] as the molecule, how does the Hepatotoxicity read?
**A.** NE: No evidence of hepatotoxicity in any species

**Q.** How did the Hepatotoxicity turn out when `CC1=CC(=O)c2ccccc2C1=O` [MENADIONE] was run?
**A.** AH: Evidence for animal hepatotoxicity but not tested in humans

**Q.** How did the Hepatotoxicity turn out when `CCC1(c2ccccc2)C(=O)NC(=O)N(C)C1=O` (stereo not given) [MEPHOBARBITAL] was run?
**A.** HH: Evidence of human hepatotoxicity

**Q.** `CCCC(C)(COC(N)=O)COC(N)=O` [MEPROBAMATE] was tested. Which Hepatotoxicity did it give?
**A.** HH: Evidence of human hepatotoxicity

**Q.** For `Sc1ncnc2nc[nH]c12` [MERCAPTOPURINE ANHYDROUS], which Hepatotoxicity is on record?
**A.** HH: Evidence of human hepatotoxicity
